The results in this text go back to a melting point compilation (Tetko et al.; mined from patent text by program, amines drawn as free bases though some values may be those of a salt).

Structures are written as SMILES. A value given as a limit tells only on which side of the number the result lay.

As a reminder, the melting point is the temperature, or range, at which the solid turns liquid. `CCCONC(=O)c1nc(-c2ccc(Cl)c(OC)c2F)cc(N)c1Cl`: the melting point lay within 165 to 168 °C.

For `O=C(O)COc1ccc(C(=O)C=Cc2ccccc2)c(Cl)c1Cl`, the melting point was 190 to 191 °C.

In the case of `CC=C(CC)c1nc(C)nc2c1c(C)c(C)n2-c1c(C)cc(C)cc1C`, the melting point was 59 to 61 °C.

Consider `O=C(O)[C@H]1CCCN1C(=O)CCS`, for which the melting point lay within 68 to 70 °C.

In turn, `COc1ccc(COc2ccccc2-c2cccc(N)c2)cc1` had a melting point of 68 to 70 °C.

As to `COC(=O)C1=C(C)NC(C)=C(C(=O)OCCCCCCS(=O)c2nc(C)cs2)C1c1cccc([N+](=O)[O-])c1` (centres undefined), the melting point was 81 to 83 °C.

In turn, `CNC(=O)N1CCSC1c1ccc(O)cc1` (centres undefined) showed a melting point of 218 to 220 °C.

`NC(=O)c1cc2c(Oc3ccc(-n4ccnc4)cc3)cncc2s1` returned a melting point of 310 to 312 °C.

`CC(CC1(c2ccc(Cl)cc2)CCC1)NC=O` (centres undefined): the melting point was 71 to 73 °C.

As for `CC12CCC(CC1=O)C(C)(C)O2` (centres undefined), the melting point lay in the range of 40 to 48 °C.

The compound `CC(C)C(=O)Nc1nc2c(ncn2C2OC(CO)C(O)C2OC2CCCO2)c(=O)[nH]1` (centres undefined) had a melting point of 178 to 180 °C.

The compound `O=C([C@H]1CCc2cc(Cl)c(Cl)cc21)N1CCSC[C@H]1CN1CCCC1` had a melting point of 123 to 124 °C.

Turning to `O=C(NC(=O)c1c(Cl)cccc1Cl)Nc1ccc(Cl)c(Cl)c1`, the melting point came to 232 °C.

The compound `O=c1c(CCCCCCCc2ccncc2)cc2cccnc2n1-c1cccc([N+](=O)[O-])c1` registered a melting point of 189 to 192 °C.

The compound `CCCCc1nc2ccsc2n1Cc1ccc(-c2ccccc2C(=O)O)cc1` had a melting point of 203 °C.

For the compound `CS(=O)(=O)c1ccc(-c2nn(CCc3ccccc3)cc2-c2ccc(F)cc2)cc1`, the melting point is 170 to 171 °C.

Consider `COc1ccc(-c2nc(N3CCN(C)CC3)c3c(C)c(C#N)sc3n2)cc1OC`, for which the melting point is 208 to 209 °C.

For `COc1c(C(C)(C)C)cc(N2CCCC2=O)cc1C(C)(C)C`, the melting point lay within 90 to 91 °C.

Take `CCOc1ccc(C=[N+]([O-])C2CCCCC2)cc1`: the melting point was determined as 124 °C.

The compound `COc1cc(C2CCN(C(=O)C3CCN3)CC2)ccc1Nc1ncc2ccc(-c3ccccc3OC)n2n1` (centres undefined) came in with a melting point of 103 to 112 °C.

On to `COc1cc(Nc2nccc(Nc3ccc(O)cc3)n2)cc(OC)c1OC`, for which the melting point lay within 112 to 115 °C.

On to `Clc1ccc(-c2nc(COc3ccc(CCCn4ccnc4)cc3)co2)s1`, for which the melting point lay within 77 to 78 °C.

In the case of `N#CC(CC(=O)CCl)(c1ccccc1)c1ccccc1`, the melting point was in the range of 102 to 104 °C.

Turning to `Cc1oc(-c2ccccc2)nc1COc1ccc(Cn2cc(C(=O)O)c(C(C)C)n2)cc1`, the melting point lay within 194 to 195 °C.

Take `O=C1Nc2ccc(Cl)c(Cl)c2C1=O`: the melting point was in the range of 239 to 240 °C.

In the case of `CC(C)(c1ccccc1)n1nnc(-c2ccccc2)n1`, the melting point was in the range of 44 to 46 °C.

The compound `COC(=O)C1=C(C)Nc2nc(N3CCOCC3)nc(N3CCOCC3)c2C1c1cccc(Cl)c1Cl` (centres undefined) registered a melting point of 188 °C.

The compound `CC(=O)c1cc2ccccc2cn1` yielded a melting point of 84.4 to 86.8 °C.

Turning to `COc1cc(C(C)=O)ccc1OCCCN1CCCC(C(O)(c2ccc(F)cc2)c2ccc(F)cc2)C1` (centres undefined), the melting point was in the range of 100 to 105 °C.

Compound `CCCCc1nc(S(=O)(=O)c2ccccc2)c(C(=O)O)n1Cc1ccc(-c2ccccc2C(=O)O)cc1` registered a melting point of 140 °C.

`Cc1cccc(NC(=O)OCc2cccc(O)c2)c1CNc1cccn2c(C)c(C)nc12` returned a melting point of 190 to 193 °C.

In turn, `CN(CC(=O)C(Cc1ccccc1)NC(=O)c1ccccc1)C(=O)OCc1ccccc1` (centres undefined) returned a melting point of 140 to 141 °C.

On to `CCCCCCCCCCN(O)C(=O)NC`, for which the melting point is 96 to 97 °C.

Compound `N#Cc1ccc(-c2ccc(Cl)cc2)cc1` came in with a melting point of 128 to 130 °C.

Compound `N#CN=C(Nc1cccnc1)NC(NC(=O)c1ccc(Cl)cc1)C(F)(F)F` (centres undefined) came in with a melting point of 136 to 138 °C.

In the case of `CC(C)CC1(CC(=O)NO)CCN(Cc2ccccc2)C1=O` (centres undefined), the melting point lay within 119 to 120 °C.

In turn, `O=C(O)Cc1ccc(-n2cc(Cl)cn2)cc1` returned a melting point of 176 to 178 °C.

With `C/C(=C\c1ccc(C(=O)O)cc1)c1ccc2c(c1)N(C)CCN2C`, the melting point was in the range of 203 to 205 °C.

`O=NCNC1=Nc2ccc([N+](=O)[O-])cc2C(c2ccccc2Cl)=NC1` gave a melting point of 164 to 166 °C.

As for `C[C@@H]1[C@@H](S(=O)(=O)c2ccccc2)[C@@H]2O[C@@H]2C[C@@H]1O`, the melting point was found to be 148 °C.

`C[C@]1(COC(=O)N2CCC(Oc3ccc(C(F)(F)F)cc3)CC2)Cn2cc([N+](=O)[O-])nc2O1` displayed a melting point of 165 to 166 °C.

For the compound `COC(=O)C1Sc2cc(OCc3ccccc3)ccc2OCC1=O` (centres undefined), the melting point lay within 101 to 102 °C.

As for `COc1cncc(-c2cccc(OC3SCC(OC(C)=O)C(OC(C)=O)C3OC(C)=O)c2)c1` (centres undefined), the melting point is 167 °C.

Compound `C=C(Sc1ccc(Br)cc1)S(=O)(=O)c1ccc(Cl)cc1` yielded a melting point of 45 to 95 °C.

Compound `N#Cc1ccc(C(=O)N[C@@H](Cc2c[nH]c3ccccc23)C(=O)O)cc1` returned a melting point of 125 to 127 °C.

The compound `CCNC1=NS(=O)(=O)c2cc(Cl)sc2N1` gave a melting point of 274 to 275 °C.

Turning to `CCC(=CC(CSc1nnc(C)s1)=NO)C(C)[N+](=O)[O-]` (centres undefined), the melting point is 75 to 76 °C.

For `O=C(O)Cc1c(-c2ccccc2)c2cc3c(cc2oc1=O)CCC3`, the melting point lay within 216 to 218 °C.

`Cc1[nH]c(=O)n(-c2cc(C(=O)OC(C)C)c(Cl)cc2F)c(=O)c1[N+](=O)[O-]` returned a melting point of 202 to 205 °C.

With `COc1cc2c(c3c1OC(C)(C)C3)C(c1cccc(C(N)=O)c1)=NCC2(C)C`, the melting point was 191 to 193 °C.

As to `CC(C)c1cc2cc([N+](=O)[O-])ccc2o1`, the melting point amounted to 73 °C.

In turn, `CSc1cc(SC)c(N)c(SC)c1N` had a melting point of 114 to 116 °C.

The compound `O=C1NC(=O)C2(C=Cc3cscc32)N1` (centres undefined) gave a melting point of 241 to 243 °C.

`Fc1ccc(N2CCN(CCCc3cnc4n3CCCC4)CC2)cc1` registered a melting point of 106 to 108 °C.

As for `CCCc1ccccc1OCCCOc1ccc2c(=O)cc(-c3nnn[nH]3)oc2c1`, the melting point lay within 191 to 193 °C.

Turning to `CC(C)OCCOc1c(-c2ccc(S(C)(=O)=O)cc2)cnn(-c2ccc(F)c(F)c2)c1=O`, the melting point was in the range of 105 to 107 °C.

Compound `Cc1ccc(NC(=O)c2cccc(N(C)C)c2)cc1NC(=O)c1cccc(N(C)S(C)(=O)=O)c1` came in with a melting point of 168 to 169 °C.

`CCCCCCCCOc1ccc(C(N)=O)c(O)c1` showed a melting point of 123 to 124 °C.

`NC(=O)COc1ccc(CN2C(=O)C3(COc4cc5c(cc43)CCO5)c3ccccc32)cc1` (centres undefined) displayed a melting point of 215 to 216 °C.

The compound `O=c1c2c(Cc3ccc(O)cc3)n[nH]c2c2cccnc2n1-c1ccccc1` showed a melting point of 316 to 317 °C.

In turn, `O=c1[nH]c2c(Cl)cc(Cl)cc2c2nc(-c3ccccc3)nn12` yielded a melting point of 309 to 311 °C.

As to `CC1(C)CCC(C)(C)c2cc(NC(=O)c3ccccc3)ccc21`, the melting point lay within 146 to 148 °C.

Regarding `CC(C)(C)OC(=O)N1CCC(NCc2cccc(NC(=O)c3ccc(F)cc3Cl)n2)CC1`, the melting point turned out to be 79.1 °C.

Consider `COc1cccc(C23CCCC2C(=O)N(Cc2ccccc2)C(=O)C3)c1` (centres undefined), for which the melting point was 75 to 77 °C.

Regarding `CCCc1sc(NC(=O)C2CCCCC2)c(C#N)c1OC`, the melting point fell in the range of 146 to 147 °C.

Compound `CS(=O)(=O)c1ccc(-c2[nH]c3ccc(Cl)cc3c2-c2ccccc2)cc1` had a melting point of 281 to 283 °C.

For the compound `CCOC(=O)c1cnc(CC)nc1NCc1ccc(-c2ccccc2-c2nnnn2C(c2ccccc2)(c2ccccc2)c2ccccc2)cc1`, the melting point is 134 to 136 °C.

`Fc1cc(Cl)ccc1-n1nc2c(c1Br)CCC2`: the melting point was in the range of 106 to 110 °C.

Regarding `Cc1nc(C(=O)O)co1`, the melting point is above 250 °C.

Regarding `CC(C)c1cccc2c1C(=O)N(COC(=O)c1c(Cl)ccc(OCC(=O)O)c1Cl)S2(=O)=O`, the melting point lay in the range of 210 to 212 °C.

Consider `CO/C(=C\C=C\c1cc2ccccc2s1)C(=O)NC1CC(C)(C)N(C)C(C)(C)C1`, for which the melting point was 240 °C.

In the case of `O=c1[nH]c(SCCCN2CCN(c3ccccn3)CC2)nc2sc3c(c12)CCCC3`, the melting point was 190 to 192 °C.

As to `NC(=O)CN1C(=O)[C@@H](NC(=O)c2ccc(Cl)cc2)[C@H](c2ccccc2)Sc2ccccc21` (relative stereo), the melting point lay within 272 to 275 °C.

In turn, `CNc1ncnc2c1ncn2Cc1c(Cl)cccc1Cl` had a melting point of 219 to 220 °C.

`CC(C)N(Cc1ccccc1)c1ncnc2c(N3CCOCC3)nc(N3CCC(N(C)C)CC3)nc12`: the melting point lay in the range of 122 to 125 °C.

Compound `CC(=O)c1cc2c(cn1)[nH]c1ccccc12` displayed a melting point of 174 to 175 °C.

`CN(C)c1nc(N)c(-c2nc(N)no2)nc1Cl` had a melting point of 210 to 211 °C.

In turn, `CCN(C(=O)c1ccccc1C(c1ccc(O)cc1)c1ccc(O)cc1)c1cccc(C)c1` registered a melting point of 218 to 220 °C.

In turn, `Cc1ccc(S(=O)(=O)OCCc2cccs2)cc1` yielded a melting point of 30 °C.

`Fc1cc(F)c2c(c1)CCC(n1cc[nH]c1=S)C2` (centres undefined) showed a melting point of 260 to 261 °C.

`O=C(Nc1ccccn1)c1cnc2c(C(F)(F)F)cccc2c1O` showed a melting point of 335 to 336 °C.

On to `Cc1cc(C)c2nsnc2c1[N+](=O)[O-]`, for which the melting point fell in the range of 105 to 106 °C.

On to `CC(C)(C)OC(=O)c1nc(-c2ccccc2)[nH]c1-c1cccnc1`, for which the melting point was 196 to 197 °C.

For the compound `COc1ccc(Cc2nc3n(c2-c2ccccc2)CCS3)cc1`, the melting point lay in the range of 273 to 274 °C.

Compound `Cc1csc2nc(-c3ccc(C(=O)O)cc3)nc(NCc3ccccc3)c12` showed a melting point of 270 °C.

The compound `CNC(=C[N+](=O)[O-])NCCCOc1cccc(CCCN(C)C)c1` yielded a melting point of 59.5 to 61 °C.

On to `O=C1CCCc2nc(N3CCNCC3)ncc2N1`, for which the melting point lay within 175 to 178 °C.

For `CCCCOc1coc(CO)cc1=O`, the melting point fell in the range of 68 to 73 °C.

In the case of `CC(C)[C@H](S)C(=O)NC(C)(C)C(=O)N[C@@H](COCc1ccccc1)C(=O)O`, the melting point fell in the range of 57 to 70 °C.
